Patent US12384780B2, “PARP1 inhibitors and uses thereof” (XinThera, Inc., priority 2022, dated 2025)

What was measured:
[1] = tested on: MDA-MB-436 (mutated BRCA1) cells; assay: Cell growth inhibition assay (CellTiter-Glo), MDA-MB-436; type: cell-based; conditions: 500 cells/well, 7 days, CellTiter Glo 2.0; for EC50: Homo sapiens, MDA-MB-436, 168 h, read-out: MDA-MB-436 pEC50 (converted)
Procedure: (§1) Cell proliferation was measured through the cell viability assay using DLD-1 BRCA2(−/−) and parental isogenic pair and MDA-MB-436 (mutated BRCA1) cell lines. The CellTiter-Glo (CTG) based cell viability assay is designed to determine the number of viable cells in the culture because of compound effect, by quantifying ATP, which indicates the presence of metabolically active cells.
(§2) DLD-1 BRCA2(−/−) and parental isogenic pair were cultured in RPMI 1640 supplemented with […] (FBS), and […] cells were cultured in DMEM supplemented with 10% FBS. Both were cultured at 37° C. with […]. Invention compounds were distributed to the 384 well plate (Corning, 3764) using Echo acoustic liquid handler to form a 1:3 serially diluted final concentration with top dose of 10 or 30 μM. The cells were seeded into the plate in the density of 50 cells/well (DLD-1 parental), 200 cells/well (DLD-1 BRCA2−/−), or 500 cells/well (MDA-MB-436). After a short spun, the cells were cultured in a well moisturized incubator at 37° C. with 5% CO2 for 7 days without disturbance. The cell viability was measured by CellTiter Glo 2.0 assay kit (Promega, G9243), and growth inhibition rate was calculated and plotted against final compound concentration, and the data were fitted in Xfit to generate IC50 values.

PARP1 = biological target: T1, PARP1 (Homo sapiens, UniProt P09874); assay: Biochemical fluorescent polarization (FP) assay, displacement of PARPi-FL, PARP1; type: binding; conditions: 20 nM protein, 3 nM PARPi-FL, 4 h at room temperature; for IC50: read-out: FP PARP1 pIC50 (converted)
T1 construct: made in house
T1 sequence (P09874 whole entry): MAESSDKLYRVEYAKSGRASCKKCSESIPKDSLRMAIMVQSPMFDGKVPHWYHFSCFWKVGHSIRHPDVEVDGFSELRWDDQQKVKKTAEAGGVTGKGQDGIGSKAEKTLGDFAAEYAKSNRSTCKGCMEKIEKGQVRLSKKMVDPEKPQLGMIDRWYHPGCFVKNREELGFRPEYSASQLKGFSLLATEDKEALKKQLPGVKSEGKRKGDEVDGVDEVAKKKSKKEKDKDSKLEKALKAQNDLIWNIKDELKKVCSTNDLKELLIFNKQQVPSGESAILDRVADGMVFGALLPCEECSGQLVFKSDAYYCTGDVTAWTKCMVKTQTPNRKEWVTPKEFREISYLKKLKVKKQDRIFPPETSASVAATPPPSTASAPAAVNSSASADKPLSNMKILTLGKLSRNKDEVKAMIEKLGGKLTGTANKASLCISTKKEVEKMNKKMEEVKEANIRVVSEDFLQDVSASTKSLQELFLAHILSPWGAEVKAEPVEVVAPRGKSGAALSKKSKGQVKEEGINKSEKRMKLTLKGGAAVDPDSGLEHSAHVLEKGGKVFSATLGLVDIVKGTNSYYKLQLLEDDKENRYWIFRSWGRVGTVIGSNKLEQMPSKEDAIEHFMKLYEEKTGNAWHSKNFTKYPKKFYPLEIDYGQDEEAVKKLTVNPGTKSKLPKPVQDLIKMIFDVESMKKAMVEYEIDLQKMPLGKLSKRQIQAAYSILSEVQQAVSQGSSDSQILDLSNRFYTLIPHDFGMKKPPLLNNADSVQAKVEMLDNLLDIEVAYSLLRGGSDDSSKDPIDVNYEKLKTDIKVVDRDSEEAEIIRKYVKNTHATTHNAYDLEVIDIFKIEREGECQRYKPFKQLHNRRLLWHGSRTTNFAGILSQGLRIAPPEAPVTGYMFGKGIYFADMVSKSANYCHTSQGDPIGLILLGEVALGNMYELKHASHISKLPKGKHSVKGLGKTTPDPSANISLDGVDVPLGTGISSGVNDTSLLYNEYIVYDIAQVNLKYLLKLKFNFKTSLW
Procedure: (§3) Compounds were characterized using an assay measuring the displacement of a commercially available fluorescently labeled PARP 1/2 inhibitor (PARPi-FL, Tocris Biosciences, #6461) as exemplified in assays performed in WO2014/064149 and WO2021/013735A1. The assay was performed utilizing the following method: Compounds were dissolved in DMSO an Echo550 liquid handler was utilized to make serial dilations in the desired concentration range in Optiplate-384F plates. 100% DMSO was used for the high (with protein) and low (without protein) control samples. 20 nL of compound or DMSO alone was added to individual assay plate wells. PARP1 and PARP2 protein were expressed, purified, and diluted in assay buffer containing 50 mM Tris pH 8.0, 0.001% Triton X-100, 10 mM MgCl2, 150 mM NaCl to a final concentration of 20 nM. The PARPi-FL was then added at a final concentration of 3 nM. The assay plate was centrifuged at 1000 rpm for 1 min and incubated for 4 h at room temperature. […] [formula]

DLD-1 BRCA2(−/−) cells = assay: Cell growth inhibition assay (CellTiter-Glo), DLD-1 BRCA2(−/−); type: cell-based; conditions: 200 cells/well, 7 days, CellTiter Glo 2.0; for EC50: Homo sapiens, DLD-1, 168 h, read-out: DLD-1 BRCA2(−/−) pEC50 (converted)
Procedure: as §1, §2

PARP2 = biological target: T2, PARP2 (Homo sapiens, UniProt Q9UGN5); assay: Biochemical fluorescent polarization (FP) assay, displacement of PARPi-FL, PARP2; type: binding; conditions: 20 nM protein, 3 nM PARPi-FL, 4 h at room temperature; read-out: FP PARP2 pIC50 (converted)
T2 construct: made in house
T2 sequence (Q9UGN5 whole entry): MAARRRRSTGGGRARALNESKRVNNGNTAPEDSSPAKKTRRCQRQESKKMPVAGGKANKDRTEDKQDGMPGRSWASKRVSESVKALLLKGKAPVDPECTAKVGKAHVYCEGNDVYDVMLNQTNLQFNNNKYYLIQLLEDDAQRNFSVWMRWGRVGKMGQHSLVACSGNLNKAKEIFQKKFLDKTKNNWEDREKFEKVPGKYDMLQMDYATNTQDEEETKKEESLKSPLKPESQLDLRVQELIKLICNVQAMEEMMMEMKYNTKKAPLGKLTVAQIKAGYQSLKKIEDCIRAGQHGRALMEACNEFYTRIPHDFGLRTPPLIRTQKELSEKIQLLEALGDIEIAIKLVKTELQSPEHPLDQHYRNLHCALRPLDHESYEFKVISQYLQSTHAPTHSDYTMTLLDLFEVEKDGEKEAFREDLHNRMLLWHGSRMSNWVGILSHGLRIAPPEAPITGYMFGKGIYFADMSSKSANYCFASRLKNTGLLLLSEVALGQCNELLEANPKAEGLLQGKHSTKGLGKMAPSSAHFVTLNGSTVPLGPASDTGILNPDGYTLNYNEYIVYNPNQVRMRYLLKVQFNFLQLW
Procedure: as §3

SMILES	EC50 [1] [nM]	IC50 (PARP1) [nM]	EC50 (DLD-1 BRCA2(−/−) cells) [nM]	IC50 (PARP2) [nM]	FP PARP1 pIC50 (PARP1)	MDA-MB-436 pEC50 [1]	DLD-1 BRCA2(−/−) pEC50 (DLD-1 BRCA2(−/−) cells)
Cc1c(Cl)c(=O)[nH]c2cc(CN3CCN(c4ccc(C#N)cn4)CC3)cnc12 [Example 36, 6-{4-[(7-chloro-8-methyl-6-oxo-5H-1,5-naphthyridin-3-yl)methyl]piperazin-1-yl}pyridine-3-carbonitrile]	1	5.01	1.26	2000			
Cc1nc2ccc(CN3CCN(c4ccc(C#N)cn4)CC3)cc2[nH]c1=O [Example 84]	7.94	10	6.31	50100			
Cc1cc2ncc(CN3CCN(c4cc(F)c(F)cn4)CC3)cc2[nH]c1=O [Example 58]	7.94	12.6	7.94	15800			
N#Cc1ccc(N2CCN(Cc3cnc4cc(C5CCCO5)c(=O)[nH]c4c3)CC2)nc1 (single isomer, unassigned) [Example 68, 6-(4-{[6-oxo-7-(oxolan-2-yl)-5H-1,5-naphthyridin-3-yl]methyl}piperazin-1-yl)pyridine-3-carbonitrile]	25.1	12.6	39.8	79400			
[2H]C([2H])(c1cnc2cc(CC)c(=O)[nH]c2c1)N1CCN(c2ccc(F)cc2C#N)CC1 [Example 67]	1.58	15.8	1.58	25100			
CCc1cc2ncc(CN3CCN(c4ccc(C#N)nc4)[C@@H]4C[C@@H]43)cc2[nH]c1=O (single isomer, unassigned) [Example 15]	5.01	5.01	7.94	10000			
CCc1cc2ncc(CN3CCN(c4cc(F)c(C#N)cc4F)CC3)cc2[nH]c1=O [Example 41]	1	12.6	0.794	2000			
Cc1cc2ncc(CN3CCN(c4ccc(C#N)nc4C(F)F)CC3)cc2[nH]c1=O [Example 31]	6.31	6.31	15.8	> 100000			
Cc1cc2ncc([C@@H](C)N3CCN(c4ccc(C#N)cn4)[C@H](C)C3)cc2[nH]c1=O (single isomer, unassigned) [Example 28, rel-6-[(2R)-2-methyl-4-[(1R*)-1-(7-methyl-6-oxo-5H-1,5-naphthyridin-3-yl)ethyl]piperazin-1-yl]pyridine-3-carbonitrile]	63.1	> 100	63.1	> 100000			
N#Cc1ccc(N2CCN(Cc3cnc4cc(Cl)c(=O)[nH]c4c3)CC2)cc1 [Example 66]	1.58	5.01	2	> 100000			
CCc1cc2ncc(CN3CCN(c4ccc(C#N)cn4)[C@H](C)C3)cc2[nH]c1=O [Example 21]	12.6	5.01	7.94	1260			
O=c1[nH]c2cc(CN3CCN(c4ccc(F)cn4)CC3)cnc2cc1C1CC1 [Example 16, 3-cyclopropyl-7-{[4-(5-fluoropyridin-2-yl)piperazin-1-yl]methyl}-1H-1,5-naphthyridin-2-one]	10		10	2510	8.5		
Cc1c(Cl)c(=O)[nH]c2cc(CN3CCN(c4ccc(C#N)cc4)CC3)cnc12 [Example 2, 4-{4-[(7-chloro-8-methyl-6-oxo-5H-1,5-naphthyridin-3-yl)methyl]piperazin-1-yl}benzonitrile]	1.26	50.1	1.58	7940			
Cc1cc2ncc(CN3CCN(c4cc(F)c(C#N)cc4F)CC3)cc2[nH]c1=O [Example 13]	3.98	5.01	5.01	> 100000			
Cc1cc2ncc(CN3CCN(c4ccc(C#N)cn4)[C@H]4C[C@H]43)cc2[nH]c1=O (single isomer, unassigned) [Example 19]	158	6.31	200	> 100000			
CCc1cc2ncc(CN3CCN(c4ccc(F)cc4C#N)CC3)cc2[nH]c1=O [Example 40]	0.794	6.31	1	12600			
N#Cc1ccc(N2CCN(Cc3cnc4cc(Cl)c(=O)[nH]c4c3)CC2)c(F)n1 [Example 61]	2	6.31	3.16	> 100000			
C[C@@H]1CN(Cc2cnc3cc(C4CC4)c(=O)[nH]c3c2)CCN1c1ccc(F)cn1 [Example 22]	158	7.94	126	12600			
CCc1cc2ncc(CN3CCN(c4ccc(Br)cn4)CC3)cc2[nH]c1=O [Example 7]	6.31	25.1	6.31	> 100000			

The remaining lines, values ahead:

EC50 [1] [nM]	IC50 (PARP1) [nM]	EC50 (DLD-1 BRCA2(−/−) cells) [nM]	IC50 (PARP2) [nM]	FP PARP1 pIC50 (PARP1)	MDA-MB-436 pEC50 [1]	DLD-1 BRCA2(−/−) pEC50 (DLD-1 BRCA2(−/−) cells)	SMILES
2.51	5.01	3.16	6310				Cc1cc2ncc(CN3CCN(c4ccc(C#N)cc4)CC3)cc2[nH]c1=O [Example 43]
1.58		3.16	> 100000	8.5			[2H]C([2H])(c1cnc2cc(C)c(=O)[nH]c2c1)N1CCN(c2ccc(C#N)cn2)CC1 [Example 37]
50.1	5.01	63.1	6310				CCc1cc2ncc(CN3CCN(c4ccc(C#N)nc4)[C@H]4C[C@H]43)cc2[nH]c1=O (single isomer, unassigned) [Example 14]
2.51	10	3.16	63100				Cc1cc2ncc(CN3CCN(c4ccc(F)cc4C#N)CC3)cc2[nH]c1=O [Example 35]
> 1000	> 100	> 1000	> 100000				Cc1cc2ncc(CN3CCN(c4ncc(F)cc4F)CC3)cc2[nH]c1=O [Example 26]
2.51	5.01	3.16	> 100000				Cc1cc2ncc(CN3CCN(c4ccc(C#N)cc4F)CC3)cc2[nH]c1=O [Example 18]
0.794	6.31	0.794	> 100000				N#Cc1ccc(N2CCN(Cc3cnc4cc(Cl)c(=O)[nH]c4c3)CC2)c(Cl)n1 [Example 77]
0.794	5.01	0.794	5010				CCc1cc2ncc(CN3CCN(c4ccc(C#N)cn4)CC3)cc2[nH]c1=O [Example 10]
50.1	6.31	31.6	> 100000				C[C@@H]1CN(Cc2cnc3cc(C4CC4)c(=O)[nH]c3c2)CCN1c1ccc(C#N)cn1 [Example 25]
0.631	25.1	0.794	12600				CCc1cc2ncc(CN3CCN(c4ccc(C#N)cc4C#N)CC3)cc2[nH]c1=O [Example 52]
	10		39800		7.8	7.4	N#Cc1ccc(N2CCN(Cc3cnc4cc(C5CCCO5)c(=O)[nH]c4c3)CC2)nc1 (single isomer, unassigned) [Example 69, 6-(4-{[6-oxo-7-(oxolan-2-yl)-5H-1,5-naphthyridin-3-yl]methyl}piperazin-1-yl)pyridine-3-carbonitrile]
0.501	5.01	0.631	501				CCc1cc2ncc(CN3CCN(c4ccc(C#N)c(F)c4)CC3)cc2[nH]c1=O [Example 38]
1	3.98	1	1260				N#Cc1ccc(N2CCN(Cc3cnc4cc(C(F)F)c(=O)[nH]c4c3)CC2)nc1 [Example 48, 6-(4-{[7-(difluoromethyl)-6-oxo-5H-1,5-naphthyridin-3-yl]methyl}piperazin-1-yl)pyridine-3-carbonitrile]
39.8	10	20	79400				Cc1cc2ncc(CN3CCN(c4ccc(C#N)nc4)CC3)cc2[nH]c1=O [Example 11]
